Results reported in patent publication US6737247B2, “Imaging of enzymatic activity” (The General Hospital Corporation, priority 2000, dated 2004).

Columns and labels:
peroxidase [1] = assay: H1 NMR relaxometry / relaxivity enhancement after peroxidase treatment; type: biochemical; settings: equimolar amount added to the peroxidase reaction
peroxidase [2] = assay: Kinetics of peroxidase-mediated oxidation in excess hydrogen peroxide, spectrophotometry at 400 nm; type: biochemical; settings: absorbance at 400 nm
Description: Substrates I and II at concentrations of 10-50 μM were treated by peroxidase (0.1-100 nM) and an excess of hydrogen peroxide (3.5 mM) in 10 mM phosphate-buffered saline (PBS) or 0.05 M sodium phosphate pH 6.8. In some experiments, a peroxide-generating system (5 mM glucose, glucose oxidase and lactoperoxidase) was used. In inhibition studies, 2 mM Gd-free substrate, tyramine, dopamine, or methyldopamine were added as competitive inhibitors. The reaction was monitored by spectrophotometry at 400 nm and by NMR spectrometry (Minispec 120 Bruker). Magnetic resonance imaging was performed using a 1.5 T Signa GE system and surface or knee coils. Inversion-recovery pulse sequences (TE 11 ms/TR 1000 ms/TI 50-600 ms) were used for T1 measurements. Spin-echo sequence (TE 13 ms/TR 400 ms/2 NEX, Matrix 256×160) was optimal for magnetic resonance imaging of signal amplification. Magnetic resonance signal intensity was measured using region-of-interest approach and 16-bit TIFF images. […]
Kinetics of oxidation of tyraminyl-DOTA(Gd), I, or hydroxytyraminyl-DOTA(Gd), II, in the presence of the excess of hydrogen peroxide was studied using spectrophotometry. The increase in absorbance at 400 nm in the case of both gadolinium-labeled substrates was rapid, indicating efficient oxidation of both substrates, and gave similar pseudo-first order kinetic constants: k1app=0.0125 s^−1 (I) and 0.013 s^−1 (II).

[3] = Chelex-100 resin treatment to test dissociation of gadolinium from the DOTA(Gd) complex; type: physicochemical; settings: compared to control with no peroxidase added
Excerpt: By plotting relaxation data against the concentration of gadolinium, a raise of 1/T1 and I/T2 of 2 fold (at 0.47 T) and 2.7 fold (1.5 T) in the case of substrate I, and 3.5 (at 0.47 T) in the case of substrate II has been measured (Table 1). […] To find out whether the increase in relaxivity is a result of dissociation of gadolinium cation from a DOTA(Gd) complex, we treated Tyr-DOTA(Gd) or Dopamine-DOTA(Gd) with Chelex-100 resin and compared it to the control with no peroxidase added. No difference in T1 relaxation time of substrate solutions before and after the treatment was observed.

peroxidase [4] = assay: H1 NMR relaxometry / relaxivity enhancement after peroxidase treatment; type: biochemical; settings: for r1, peroxidase: after peroxidase; for r1, control: no peroxidase
Description: Substrates I and II at concentrations of 10-50 μM were treated by peroxidase (0.1-100 nM) and an excess of hydrogen peroxide (3.5 mM) in 10 mM phosphate-buffered saline (PBS) or 0.05 M sodium phosphate pH 6.8. In some experiments, a peroxide-generating system (5 mM glucose, glucose oxidase and lactoperoxidase) was used. In inhibition studies, 2 mM Gd-free substrate, tyramine, dopamine, or methyldopamine were added as competitive inhibitors. The reaction was monitored by spectrophotometry at 400 nm and by NMR spectrometry (Minispec 120 Bruker). Magnetic resonance imaging was performed using a 1.5 T Signa GE system and surface or knee coils. Inversion-recovery pulse sequences (TE 11 ms/TR 1000 ms/TI 50-600 ms) were used for T1 measurements. […] Magnetic resonance signal intensity was measured using region-of-interest approach and 16-bit TIFF images. Mean pixel values were compared using a Student t-test.

[5] = tested on: digoxigenin-labeled Fab2' fragment of monoclonal antibody; assay: MRAMP ELISA-like assay with adsorbed DIG-labeled Fab2' fragment and anti-digoxigenin-peroxidase conjugate; settings: 0.4 mM substrate, 3.5 mM hydrogen peroxide, 96-well plate
Description: Fab2′ fragment of H18/7 monoclonal anti-human E selectin antibody was prepared using pepsin digestion, and then purified. Labeling of Fab2′-fragment with digoxigenin (DIG) hydroxysuccinimide ester (HSE) (Roche Molecular Diagnostics) was carried out according to the vendor's instructions. One ng to 1000 ng of DIG-labeled antibody was serially diluted with 0.01 M sodium carbonate (pH 9) in a 96-well plate (Nunc) and adsorbed at 37° C. overnight. Wells were washed with PBS containing 0.1% Tween 20 (PBST) blocked with BSA solution, and anti-DIG antibody-peroxidase conjugate (Roche, diluted 1:1000) was incubated in wells in PBS-B for 1 hour. Washed wells were filled with 200 μl of 0.4 mM substrate I or II and hydrogen peroxide (3.5 mM) and incubated for 30 min before imaging. Cells (2 million/sample) were treated sequentially with IL-1β, anti-E selectin DIG-labeled Fab2′-fragment, and anti-DIG antibody-peroxidase. Cell suspensions were prepared in PBS and substrates were used as above. Cells were pelleted in Eppendorf tubes (0.5 ml), and then imaged as described above. […] Magnetic resonance signal intensity was quantified as described above and compared to that of aqueous Gd solutions.
In the next series of experiments, we determined whether MRAMP could be utilized to detect a model ligand in an ELISA-like assay. […]

Molecule	influence of added equimolar competitor on gadolinium relaxivity (peroxidase [1])	pseudo-first order kinetic constant k1app (peroxidase [2]) [s⁻¹]	difference in T1 relaxation time of substrate solutions before and after Chelex-100 treatment [3]	raise of 1/T1 and 1/T2 after addition of the enzyme (peroxidase [4]; 0.47 T) [fold]	r1, peroxidase (peroxidase [4]; 0.47 T (20 MHz)) [mM⁻¹ s⁻¹]	r1, control (peroxidase [4]; 0.47 T (20 MHz)) [mM⁻¹ s⁻¹]	r1, peroxidase (peroxidase [4]; 1.5 T (63 MHz)) [mM⁻¹ s⁻¹]	r1, control (peroxidase [4]; 1.5 T (63 MHz)) [mM⁻¹ s⁻¹]	further results
NCCc1ccc(O)c(O)c1 [dopamine]	did not influence gadolinium relaxivity	–	–	–	–	–	–	–	–
NCCc1ccc(O)cc1 [tyramine]	did not influence gadolinium relaxivity	–	–	–	–	–	–	–	–
N[C@@H](Cc1ccc(O)cc1)C(=O)O [tyrosine]	did not influence gadolinium relaxivity	–	–	–	–	–	–	–	–
hydroxytyraminyl-DOTA(Gd) [Substrate II]	–	0.013	No difference	3.5	11.50	3.75	14.1	5.2	antibody fragment detected at threshold (sensitivity of MRAMP assay) [5]: 1 ng
methyl-dopamine	did not influence gadolinium relaxivity	–	–	–	–	–	–	–	–
tyramine-[1,4,7,10-tetraazacyclododecane-N,N′,N″,N′″-tetraacetic acid, gadolinium salt] [Substrate I]	–	0.0125	No difference	2	7.10	3.30	10.1	4.5	raise of 1/T1 and 1/T2 after addition of the enzyme (peroxidase [4]; 1.5 T): 2.7 fold
